Source: patent US20170266266A1, “Functions of 55 Newfound Proteins and Their Medicinal Application in the Treatment and Prevention of Disease” (priority 2012, published 2017)
pEC50: −log10 of the molar value. Where two headings read alike, the source gives them in different places.

Assays:
[1] = test system: fatty streak lesions in rabbits on high fat diet; assay type: in vivo, rabbit; settings: for TC/HDL-C: Atorvastatin group
Description: The rabbits were fasted for 12 hrs before the beginning of the experiments. Blood parameters were then tested as the normal level of plasma indicators. A total of 52 rabbits were purchased at different time, four of them were used as normal control and fed with normal diet the whole time during the experiments. […] Plasma concentrations of total cholesterol (TC), […] (TG), low density lipoprotein-cholesterol (LDL-C), very low density lipoprotein-cholesterol (VLDL-C), high density lipoprotein-cholesterol (HDL-C) were quantified by enzymatic assays. TC/HDL-C or ([…] ratios were then determined. Animals were sacrificed under deep anesthesia with sodium pentobarbital 25 mg/kg IV. The entire aorta from the aortic valve to the iliac bifurcation was removed from each rabbit and opened longitudinally. […] Atheromatous lesions were measured without staining Atheromatous lesions were manually traced in the photographs, and the percent area of the atheromatous lesions was calculated. Sample of aorta from animals were homogenated. And the content of lipid was determined.

[2] = test system: atherosclerosis in ApoE knock out mouse on high fat diet
Source text: 10 ApoE ko mice were fed with regular chow diet and used as negative control group. 50 ApoE ko mice were fed with high fat diet (35% kcal fat, 1% cholesterol) for 8 weeks, and then the plasma samples were collected for lipid profile measurement before the treatment. 50 ApoE ko mice were assigned into 5 groups based on the fasting overnight plasma TC and HDL level.
5.2. Study Timeline: • 23 Dec. 2011: 60 ApoE mice arrived at chempartner and were housed in the animal facility in the building #3 for the acclimation. • 6 Jan. 2012: Measured the body weight for each mouse. 50 mice were fed with high fat diet and 10 mice were fed with normal chow diet. • 2 Mar. 2012: All mice were fasted over night and plasma samples (about 300 ul whole blood) were collected for lipid profile measurement before treatment with RAAS antibody. • 19 Mar. 2012 to 6 Apr. […] 2012: All mice were fasted over night and plasma sample for each mouse (about 300 ul whole blood) was collected for lipid profile measurement after 16 weeks treatment. Blood glucose was also measured for each mouse. • 9 Jul. 2012: The study was terminated after 16 weeks treatment. Measure BW, sacrificed each mouse, dissected the aorta, heart, liver and kidney and fixed them in 4% PFA.
Antibody products were administrated by intraperitoneal injection every two days (Monday, Wednesday, and Friday). and the positive compound was administered by p.o every day.
The body weight was weighed weekly during the period of treatment. The fasting overnight blood glucose was measured at the end of study by Roche glucometer.
About 300 ul of blood sample was collected from the orbital vein for each mouse and centrifuged at 7000 rpm for 5 min at 4E and the plasma lipid profile was measured by Roche Modular automatic biochemistry analyzer in DaAn Medical Laboratory
After RAAS antibody products treatment for 16 weeks, all mice were sacrificed. Measured body weight and collected blood sample for each mouse. Weighed liver weight and saved a tiny piece of liver into 4% paraformaldehyde (PFA) fixation solution for further analysis. At same time, take the photos with heart, lung, aortas and two kidneys.
5.8. Oil Red Staining Procedure: • 1. Sacrificed the mice and dissected the heart, aorta, and arteries under dissecting microscope. • 2. Briefly wash with PBS and fixed in 4% paraformaldehyde (PFA) overnight at 4[…]. • 3. Rinse with 60% isopropanol • 4. Stain with freshly prepared Oil Red O working solution 10 min. • 1). Oil red O stock stain: 0.5% powder in isopropanol • 2). Working solution: dilute with distilled water (3:2) and filter with membrane (0.22 um) • 5. Rinse with 60% isopropanol 10 second. • 6. Dispel the adherent bit fat outside of the aorta under the dissecting microscope. • 7. Cut the vascular wall gently and keep the integrated arteries using the micro scissors. • 8. Unfold the vascular inner wall with the cover slides and fix it by water sealing tablet.
Scanning the glasses slides with the Aperio ScanScope system and analyze with the image proplus software to measure the area of atherosclerotic plaque lesion. The results were expressed as the percentage of the total aortic surface area covered by lesions. The operation procedure of software was briefly described as follow: Converted the sys version photos into JPG version, then calibrated it and subsequently selected the red regions and then calculate the total area automatically by image proplus software.
The results were expressed as the Mean±SEM and statistically evaluated by student's t-test.

[3] = test system: atherosclerosis in New Zealand white rabbit on high fat diet; settings: rabbit, in vivo
Description: New Zealand rabbits were adopted in this animal study and divided into 5 groups. They were high dose, medium dose and low dose of treatment, positive and vehicle control. The treatment groups were given APOAI via auricular vein once a week. […] Positive controls were given Liptor daily by p.o. with a dose of 0.45 mg/kg body weight. […] The study duration was 19 weeks. At the end of study, all animals were sacrificed. […] Lipid content was examined in liver and aorta. And liver index was also determined.
The body weight was between 1.8-2.0 kg. The animals were quarantined for 5-10 days with normal diet before study.
Animals were randomly divided into 5 groups including vehicle control, high dose, medium dose, low dose and positive control group. Ten to 14 rabbits were in one group. Each rabbit was fed with 30 gram of high fat diet followed by 120 gram of normal diet with free access to water.
The frequency of dosing was once a week. Dose was 80, 40, 20 mg/kg body weight respectively. Drug was given by intravenous injection via auricular vein with the volume of 5 mL.
5.1 body weight: body weight of each rabbit was determined once a week.
Resulted blood samples were kept still for 2 hours and then spin with 4,000 rpm for 10 min.
Abdomen cavity was opened. Whole blood was taken from heart. Heart was harvested along with 7 cm of aorta.
The aorta was dissected for 0.5 cm from aortic arch, split longitudinally and then kept in cryo-preservation tube for later lipid analysis. One piece of this sample was fixed in formalin for further pathological analysis.
The weight of liver was determined immediately. Two pieces of specimen were cut from hepatic lobe.
Resulted blood samples were kept still for 2 hours.
The aorta was dissected and opened for 7.5 cm from aortic arch longitudinally. Pictures were taken and atherosclerosis changing was analyzed.

[4] = test system: Influenza A/Weiss/43 H1N1 in MDCK cells; assay: microbe, parasite or virus in culture; assay type: cell-based
Influenza H1N1 A/WSN/33 = assay type: in vivo, BALB/c mice
3T3-L1 adipocytes = assay: Glucose uptake assay; assay type: cell-based
Description: Study Protocol • 1. 3T3-L1 fibroblasts were cultured in DMEM containing 25 mM glucose and 10% bovine calf serum at 37 °C with 5% CO2. • 2. 3T3-L1 fibroblasts were differentiated into adipocytes 2 days post confluent with the same DMEM medium containing 1 ug/ml insulin (Sigma-Aldrich), 1 uM dexamethasone (Sigma-Aldrich), and 0.5 mM isobutyl-1-methylxanthine (Sigma-Aldrich). • 3. Media were replaced with DMEM containing 10% FBS and 1 ug/ml insulin and culture 2 days. • 4. Seed 1×10^5 3T3-L1 adipocytes to 96 wells cell culture plate (DMEM, 10% FBS, 1% PS, 1 ug/ml insulin) • 5. Before experiments, adipocytes were incubated in serum free medium for starvation overnight. • 6. Dilute each sample 100 folds (2 ul primal solution to 198 ul buffer) in corresponding buffer. Add 2 ul of sample primal solution, 100 folds diluted solution and buffer to 198 ul KRPH buffer. • 7. 3T3-L1 adipocytes were washed with KRPH buffer (5 mM Na2HPO4, 20 mM HEPES, pH 7.4, 1 mM MgSO4.1 mM CaCl2, 136 mM NaCl, […], and 1% BSA) three times, Add 90 ul/well KRPH containing human insulin and samples to assay plate, incubate for 30 min at 37[…] and 5% CO2. • 8. Add 10 ul KRPH containing 0.25 uCi 1-[3H]-2-deoxyglucose/well and 50 umol/l 2-deoxyglucose and Incubate 10 min in 95% air/5% CO2 at 37[…] • 9. The transport was stopped by rinsing the cells with cold PBS containing 10 mM glucose for three times. • 10. The adipocytes were lysed in 50 ul 10% KOH for 5 min • 11. Then the aliquots were subjected to scintillation counting using TriCap.

[5] = H1N1 + Oseltamivir, dose printed 0.2/0.4 ml/mouse

In the case of CC(C)c1c(C(=O)Nc2ccccc2)c(-c2ccccc2)c(-c2ccc(F)cc2)n1CC[C@@H](O)C[C@@H](O)CC(=O)O [Atorvastatin, reference compound], the “lipid con. at dissected aorta” value ([1]; Atorvastatin group (n = 4), triglyceride content) was 0.0274 ± 0.006 µmol/mg, the TC/HDL-C ([1]; Wk 0 (start of high fat diet)) was 1.844 and the TC/HDL-C ([1]; Wk 10 (before Atorvastatin administration)) was 4.511. The TC/HDL-C ([1]; Wk 18 (end of Atorvastatin administration)) was 6.811, the liver weight ([2]; 40 mg/kg, 16 weeks treatment) was “significantly reduced” and the TC net change ([2]; 16 week treatment) was “not reduce the TC net change”. For the same molecule, the “net change of LDL” value ([2]; 16 week treatment) was “no significant difference in net change of LDL”, the “plaque area and percentage of plaque area in total inner vascular area” value ([2]; 16 weeks) was “mild trend to decrease percentage of plaque area” and the “plaque lesion area of aorta” value ([2]; 16 weeks treatment, atorvastatin 40 mg/kg) was “did not affect the plaque lesion area of aorta”.

With CC(C)c1c(C(=O)Nc2ccccc2)c(-c2ccccc2)c(-c2ccc(F)cc2)n1CC[C@@H](O)C[C@@H](O)CC(=O)O [Liptor, reference compound] the “calcification, pathological examination” value [3] was “one animal with calcification”.

CCOC(=O)C1=C[C@@H](OC(CC)CC)[C@H](NC(C)=O)[C@@H](N)C1 [Osletamivir, Oseltamivir] was tested, and the pEC50 ([4]; A/Weiss/43 H1N1, MDCK cells, read-out: EC50) was 6.05, the pEC50 ([4]; Influenza A/Weiss/43 H1N1 in MDCK cells, MTT after 72 hours, positive control, read-out: anti H1N1 EC50s) was 6.05 and the “mice survived to the end of experiment” value (Influenza H1N1 A/WSN/33; 1 mg/kg orally twice daily for 8 days) was 4 out of 5. For the same molecule, the “Mean day to death ± S.D.” value (Influenza H1N1 A/WSN/33; [5]) was greater than 14 ± 0.0 days, the Survivor/total (Influenza H1N1 A/WSN/33; [5]) was 4/4 and the body weight drop (Influenza H1N1 A/WSN/33; mouse, in vivo) was less than 15%.

Work on insulin yielded a pEC50 (3T3-L1 adipocytes; dose response AFOD 1 / AFOD RAAS 109, run N1) of 8.15, a pEC50 (3T3-L1 adipocytes; dose response AFOD 1 / AFOD RAAS 109, run N2) of 8.06 and a pEC50 (3T3-L1 adipocytes; dose response AFOD RAAS 107 / AFOD KH, run N1) of 8.51. The pEC50 (3T3-L1 adipocytes; dose response AFOD RAAS 107 / AFOD KH, run N2) was 7.99 and the pEC50 (3T3-L1 adipocytes; dose response AFOD RAAS 107 / AFOD KH, run N3) was 8.38.
